{"source": "patent US20160193240A1", "about": "“Ulmoside-A: Useful For Prevention Or Cure Of Metabolic Diseases” (COUNCIL OF SCIENTIFIC & INDUSTRIAL RESEARCH, priority 2013, published 2016)", "test_system": "PGC-1α", "experiment": "PGC-1α acetylation status (immunoprecipitation, anti-acLys western) in C2C12 myotubes", "format": "cell-based, mouse", "conditions": "10 nM, 6 hours", "protocol": "C. ULMA induces PGC-1α deacetylation. C2C12 myotubes plated in 10 cm dish were treated with vehicle (0.1% vol/vol DMSO) or 10 nM ULMA in DMSO for 6 h. The cell lysates were then incubated with 5 μg anti-PGC-1α antibody (Calbiochem) for 12 h at 4° C. on a rotating wheel set at 10 RPM. 20 μl of protein A and protein G sepharose beads (Sigma; 1:1) was then added to the solution and the incubation was continued for another 2 h. The tubes were then centrifuged (1000 RPM) for 1 min and the supernatant was discarded. The pellets were washed 7 times. The beads were boiled in 50 μl 2× lammeli buffer for 5 min and cooled immediately on ice and following quick spin, the supernatants were resolved by denaturing polyacrylamide gel electrophoresis and western blotted with anti-acetylated lysine (acLys) antibody. Data represent one of three independent experiments displaying identical pattern. […]"}
{"compound": "O=C1c2c(cc(O)c([C@@H]3O[C@H](CO)[C@@H](O)[C@H](O)[C@H]3O)c2O)O[C@@H](c2ccc(O)c(O)c2)[C@@H]1O", "note": "[ULMA, (2S,3S)-(+)-3′,4′,5,7-tetrahydroxydihydroflavonol-6-C-β-D-glucopyranoside]", "values": [{"measurement": "level of acetylated PGC-1α", "value": "decreased"}]}
